Tested on: moderate-to-severe chronic spontaneous urticaria (CSU)
Assay: Phase 2 CSU study: urticaria activity score over 7 days (UAS7)
Type: in vivo, human
Details: Omalizumab-Naïve
Text: The study comprises a 12 week, randomized, double-blind, placebo-controlled, multi-center, dose-ranging efficacy and safety phase, followed by a 40 week open label extension (OLE) phase (see FIG. 1). The study consists of three phases and an optional OLE phase. […] Clinically, CSU is characterized by the spontaneous and recurrent appearance of pruritic hives. The proposed primary endpoints were the UAS7 at Week 12 in EU and EU reference countries and the ISS7 in the US. Regardless of where a participant was from, all assessments were the same. The UAS7 score is a composite score containing both the HSS7 and the ISS7. This allowed a global assessment of the two key components of urticaria: hives and itch. […] The UAS is a validated PRO measure. […] The daily UAS scores range from 0 to 6 point/day. […] Patients were to complete the UAS using the e-diary. […] The following secondary endpoints were to be analyzed using the same approach as for the primary endpoint: • Change from baseline in UAS7 at Week 4 • Change from baseline in UAS7 at Week 12 (for US and US reference countries) • Change from baseline in ISS7 at Week 12 (except US and US reference countries) • Change from baseline in HSS7 at Week 12 The following responder secondary endpoints were to be analyzed using the Cochran-Mantel-Haenszel test adjusted by region: • Proportion of participants with UAS7<6 at Week 12 • Proportion of participants with UAS7=0 at Week 12 Participants who received selected prohibited medications and/or rescue medications were to be considered as non-responders for time points after the medication usage. For other participants, all available data including those collected during the off-treatment period were to be used to determine the responder/non-responder status. Missing data were to be considered as non-responders.

[1] = Baseline Total IgE (IU/mL) ≥300, 400 mg BID
[2] = Baseline Total IgE (IU/mL) ≥300, 400 mg QPM
[3] = Baseline Total IgE (IU/mL) ≥300, 400 mg TID
[4] = Baseline UAS7 score <28, 400 mg BID
[5] = Baseline UAS7 score <28, 400 mg QPM
[6] = Baseline UAS7 score <28, 400 mg TID
[7] = Baseline UAS7 score ≥28, 400 mg BID
[8] = Baseline UAS7 score ≥28, 400 mg QPM
[9] = Baseline UAS7 score ≥28, 400 mg TID
[10] = Duration of disease (years) 2-10, 400 mg BID
[11] = Duration of disease (years) 2-10, 400 mg QPM
[12] = Duration of disease (years) 2-10, 400 mg TID
[13] = Duration of disease (years) <2, 400 mg BID
[14] = Duration of disease (years) <2, 400 mg QPM
[15] = Duration of disease (years) <2, 400 mg TID
[16] = Duration of disease (years) >10, 400 mg BID
[17] = Duration of disease (years) >10, 400 mg QPM
[18] = Duration of disease (years) >10, 400 mg TID
[19] = Ethnicity Non-Hispanic, 400 mg BID
[20] = Ethnicity Non-Hispanic, 400 mg QPM

## CC(C)(C=C(C#N)C(=O)N1CCC[C@@H](n2nc(-c3ccc(Oc4ccccc4)cc3F)c3c(N)ncnc32)C1)N1CCN(C2COC2)CC1 [rilzabrutinib, (R)-2-[3-[4-amino-3-(2-fluoro-4-phenoxy-phenyl)pyrazolo[3,4-d]pyrimidin-1-yl]piperidine-1-carbonyl]-4-methyl-4-[4-(oxetan-3-yl)piperazin-1-yl]pent-2-enenitrile]
Baseline Total IgE (IU/mL) ≥100, 400 mg TID
  Change from Baseline in UAS7 at Week 12: Mean (SD): −17.31 (9.51)
[1]
  Change from Baseline in UAS7 at Week 12: LS Mean (SE): −14.22 (3.59)
  Change from Baseline in UAS7 at Week 12: LS Mean Diff vs. placebo (95% CI): −1.77 (−12.00, 8.47)
[2]
  Change from Baseline in UAS7 at Week 12: LS Mean (SE): −8.04 (3.57)
  Change from Baseline in UAS7 at Week 12: LS Mean Diff vs. placebo (95% CI): 4.42 (−5.58, 14.42)
  Change from Baseline in UAS7 at Week 12: Mean (SD): −9.60 (9.52)
[3]
  Change from Baseline in UAS7 at Week 12: LS Mean (SE): −14.94 (3.46)
  Change from Baseline in UAS7 at Week 12: LS Mean Diff vs. placebo (95% CI): −2.48 (−12.37, 7.41)
  Change from Baseline in UAS7 at Week 12: Mean (SD): −16.12 (9.22)
[4]
  Change from Baseline in UAS7 at Week 12: LS Mean Diff vs. placebo (95% CI): −4.49 (−12.35, 3.38)
  Change from Baseline in UAS7 at Week 12: Mean (SD): −11.43 (8.06)
[5]
  Change from Baseline in UAS7 at Week 12: LS Mean (SE): −5.87 (3.45)
  Change from Baseline in UAS7 at Week 12: LS Mean Diff vs. placebo (95% CI): −1.46 (−10.06, 7.14)
  Change from Baseline in UAS7 at Week 12: Mean (SD): −8.39 (3.86)
[6]
  Change from Baseline in UAS7 at Week 12: LS Mean Diff vs. placebo (95% CI): −7.34 (−15.21, 0.52)
  Change from Baseline in UAS7 at Week 12: Mean (SD): −13.43 (7.05)
[7]
  Change from Baseline in UAS7 at Week 12: LS Mean (SE): −17.23 (2.81)
  Change from Baseline in UAS7 at Week 12: LS Mean Diff vs. placebo (95% CI): −4.13 (−11.78, 3.52)
  Change from Baseline in UAS7 at Week 12: Mean (SD): −16.73 (14.20)
[8]
  Change from Baseline in UAS7 at Week 12: LS Mean (SE): −11.17 (2.39)
  Change from Baseline in UAS7 at Week 12: LS Mean Diff vs. placebo (95% CI): 1.94 (−5.16, 9.03)
[9]
  Change from Baseline in UAS7 at Week 12: LS Mean (SE): −19.91 (2.64)
  Change from Baseline in UAS7 at Week 12: LS Mean Diff vs. placebo (95% CI): −6.81 (−14.23, 0.62)
  Change from Baseline in UAS7 at Week 12: Mean (SD): −22.66 (12.35)
Baseline weight (kg) <72.9 (Median), 400 mg BID
  Change from Baseline in UAS7 at Week 12: Mean (SD): −12.97 (9.84)
Baseline weight (kg) <72.9 (Median), 400 mg QPM
  Change from Baseline in UAS7 at Week 12: Mean (SD): −7.98 (7.20)
Baseline weight (kg) <72.9 (Median), 400 mg TID
  Change from Baseline in UAS7 at Week 12: Mean (SD): −20.83 (13.25)
[10]
  Change from Baseline in UAS7 at Week 12: LS Mean (SE): −12.88 (3.03)
  Change from Baseline in UAS7 at Week 12: LS Mean Diff vs. placebo (95% CI): −0.05 (−8.24, 8.14)
  Change from Baseline in UAS7 at Week 12: Mean (SD): −15.56 (14.75)
[11]
  Change from Baseline in UAS7 at Week 12: LS Mean (SE): −9.73 (2.58)
  Change from Baseline in UAS7 at Week 12: LS Mean Diff vs. placebo (95% CI): 3.11 (−4.51, 10.72)
  Change from Baseline in UAS7 at Week 12: Mean (SD): −10.83 (9.70)
[12]
  Change from Baseline in UAS7 at Week 12: LS Mean (SE): −16.44 (3.07)
  Change from Baseline in UAS7 at Week 12: LS Mean Diff vs. placebo (95% CI): −3.61 (−11.80, 4.58)
  Change from Baseline in UAS7 at Week 12: Mean (SD): −17.51 (11.39)
[13]
  Change from Baseline in UAS7 at Week 12: LS Mean (SE): −16.30 (2.66)
  Change from Baseline in UAS7 at Week 12: LS Mean Diff vs. placebo (95% CI): −9.24 (−17.02, −1.46)
  Change from Baseline in UAS7 at Week 12: Mean (SD): −14.54 (10.00)
[14]
  Change from Baseline in UAS7 at Week 12: LS Mean (SE): −10.62 (3.36)
  Change from Baseline in UAS7 at Week 12: LS Mean Diff vs. placebo (95% CI): −3.55 (−12.28, 5.17)
[15]
  Change from Baseline in UAS7 at Week 12: LS Mean (SE): −17.20 (3.03)
  Change from Baseline in UAS7 at Week 12: LS Mean Diff vs. placebo (95% CI): −10.14 (−18.42, −1.86)
  Change from Baseline in UAS7 at Week 12: Mean (SD): −19.20 (11.00)
[16]
  Change from Baseline in UAS7 at Week 12: LS Mean (SE): 8.87 (12.67)
  Change from Baseline in UAS7 at Week 12: LS Mean Diff vs. placebo (95% CI): 14.79 (−14.26, 43.85)
  Change from Baseline in UAS7 at Week 12: Mean (SD): −1.83 (NC)
[17]
  Change from Baseline in UAS7 at Week 12: LS Mean Diff vs. placebo (95% CI): 4.87 (−13.68, 23.41)
  Change from Baseline in UAS7 at Week 12: Mean (SD): −4.70 (7.74)
[18]
  Change from Baseline in UAS7 at Week 12: LS Mean (SE): −18.73 (5.22)
  Change from Baseline in UAS7 at Week 12: LS Mean Diff vs. placebo (95% CI): −12.81 (−29.81, 4.20)
  Change from Baseline in UAS7 at Week 12: Mean (SD): −23.13 (14.76)
Ethnicity Hispanic, 400 mg BID
  Change from Baseline in UAS7 at Week 12: LS Mean (SE): −10.31 (3.59)
  Change from Baseline in UAS7 at Week 12: LS Mean Diff vs. placebo (95% CI): 2.24 (−7.72, 12.19)
  Change from Baseline in UAS7 at Week 12: Mean (SD): −10.23 (11.81)
Ethnicity Hispanic, 400 mg QPM
  Change from Baseline in UAS7 at Week 12: LS Mean (SE): −8.80 (2.97)
  Change from Baseline in UAS7 at Week 12: LS Mean Diff vs. placebo (95% CI): 3.74 (−5.35, 12.83)
  Change from Baseline in UAS7 at Week 12: Mean (SD): −10.26 (9.92)
Ethnicity Hispanic, 400 mg TID
  Change from Baseline in UAS7 at Week 12: LS Mean (SE): −13.76 (3.78)
  Change from Baseline in UAS7 at Week 12: LS Mean Diff vs. placebo (95% CI): −1.22 (−11.34, 8.91)
  Change from Baseline in UAS7 at Week 12: Mean (SD): −15.49 (12.69)
[19]
  Change from Baseline in UAS7 at Week 12: LS Mean (SE): −16.16 (2.46)
  Change from Baseline in UAS7 at Week 12: LS Mean Diff vs. placebo (95% CI): −7.92 (−14.63, −1.20)
  Change from Baseline in UAS7 at Week 12: Mean (SD): −16.52 (12.39)
[20]
  Change from Baseline in UAS7 at Week 12: LS Mean (SE): 9.79 (2.59)
  Change from Baseline in UAS7 at Week 12: LS Mean Diff vs. placebo (95% CI): −1.54 (−8.49, 5.41)
